Several values for one entry are separate records, joined by “and”; a condition that tells them apart may be missing. Equal entries are not always repeated.
What was measured:
[1] = system: Hep G2-A16-CD81 cells; experiment: Hep G2 cellular toxicity counter-screen (CellTiterGlo); assay type: cell-based; settings: HepG2-A16-CD81, no sporozoites, ± SE, read-out: Activity against Hep G cells
Procedure: Briefly, 3000 Hep G2-A16-CD81 cells/well were seeded in 1536-well plates (Greiner Bio). 50 nL of the test and control compound diluted in DMSO was added and incubated for 24 h. […] The plates were centrifuged for 5 min at 330 × g and incubated at 37°C. Forty-eight hours post infection, 2 μL of luciferin reagent (Promega BrightGlo) was added to each well, and the luciferase activity was detected using a Perkin Elmer Envision plate reader. […] To counter-screen for cellular toxicity, Hep G2-A16-CD81 cells were seeded as above for the sporozoite liver-stage assay but in the absence of sporozoites. Toxicity measurements were performed by adding Promega CellTiterGlo® (2 μL), followed by luminescence measurements. Curve fitting was done as described above using puromycin (25 μM) as a positive control and DMSO as negative control wells.

[2] = system: A2780/WT cells; experiment: Chemosensitivity MTT assay, A2780 wild type; assay type: cell-based, human; settings: Homo sapiens, A2780, 96 h, ± SE, read-out: Activity against A2780/WT cells, IC50
Procedure: (§1) The chemosensitivity of compounds 3–6 was assessed in the wild-type immortalized human ovarian adenocarcinoma cell line A2780 and its daughter cell lines, which are resistant to the standard cancer chemotherapeutics doxorubicin (A2780/ADR) and cisplatin (A2780/CIS, all cell lines from ECACC, Salisbury, United Kingdom). A modified MTT assay was used ([Shnyder et al., 2008]). Cells (2 × 10^4/ml) were inoculated into each well of a 96-well plate and incubated for 24 h at 37°C in a humidified atmosphere containing 5% CO2. Compounds were then added at a range of concentrations to each well, and the plates were then incubated for a further 96 h. After 96 h, the culture medium was removed and 200 μL of 0.5 mg ml^–1 MTT solution (Sigma) in the complete medium was added to each well. Following a further 4 h incubation, the solution was removed from each well and 150 μL of DMSO was added to solubilize the formazan crystals resulting from MTT conversion. The absorbance values for the resulting solutions were read at 540 nm on an Azure 96-well microplate reader (Azure Biosynstems Inc.), and the cell survival was calculated as the absorbance of treated cells divided by the control.

[3] = system: A2780/ADR cells; experiment: Chemosensitivity MTT assay, doxorubicin-resistant A2780/ADR; assay type: cell-based; settings: Homo sapiens, 96 h, ± SE, read-out: Activity against A2780/ADR cells, IC50
Procedure: as §1, with “A” for “The chemosensitivity of compounds 3–6 was assessed in the wild-type immortalized human ovarian adenocarcinoma cell line A2780 and its daughter cell lines, which are resistant to the standard cancer chemotherapeutics doxorubicin (A2780/ADR) and cisplatin (A2780/CIS, all cell lines from ECACC, Salisbury, United Kingdom). A”

[4] = system: A2780/cis cells; experiment: Chemosensitivity MTT assay, cisplatin-resistant A2780/CIS; assay type: cell-based, human; settings: Homo sapiens, A2780cis, 96 h, ± SE, read-out: Activity against A2780/cis cells, IC50
Procedure: as §1

[5] = system: P. falciparum (NF54-Mal8p1.16-GFP-Luc) late-stage gametocytes; experiment: microbe, parasite or virus in culture; assay type: cell-based, Plasmodium falciparum
Procedure: Gametocytes were produced as per [Reader et al. (2015]; [2021)] from P. falciparum NF54-Mal8p1.16-GFP-Luc ([Adjalley et al., 2011]), and each batch was validated for viability and functionality before use. […] Drug assays were set up on day 10 (representing late gametocytes, >90% stage IV/V gametocytes) using a 2–3% gametocytemia, 1.5% hematocrit culture. The drug pressure was for 48 h under stationary, hypoxic conditions (90% N2, 5% O2, and 5% CO2) at 37°C. Luciferase activity was determined in 30 μL parasite lysates by adding 30 μL luciferin substrate (Promega Luciferase Assay System) at room temperature and detection of resultant bioluminescence at an integration constant of 10 s with the GloMax®-Multi + Detection System with Instinct® Software. Methylene blue (5 μM) and an internal control (MMV390048, 5 μM) were routinely included as controls.

`C[n+]1c2ccccc2cc2[n-]c3c(Br)cc(Br)cc3c21` [Compound 4, 7,9-Dibromocryptolepine] was tested, and the IC50 [1] was 6790 ± 920 nM, the IC50 [2] was 200 ± 580 nM and the IC50 [3] was 310 ± 60 nM. The IC50 [4] was 580 ± 100 nM.

`C[n+]1c2ccccc2cc2[n-]c3c(I)cc(I)cc3c21` [Compound 6, 7,9-diiodocryptolepine] was tested, and the IC50 ([5]; Plasmodium falciparum, NF54, 48 h, read-out: Activity against late-stage gametocytes IC50) was 2200 ± 20 nM, the “Selectivity index (SI), late-stage gametocytes with respect to Hep G cells” value ([5]; SI with respect to Hep G cells) was 13 and 12.8 and the IC50 [1] was 28200 ± 4100 nM. For the same compound, the IC50 [2] was 130 ± 70 nM, the IC50 [3] was 180 ± 20 nM and the IC50 [4] was 280 ± 50 nM.

For `C[n+]1c2ccccc2cc2[n-]c3ccc(I)cc3c21` [Compound 5, 7-iodocryptolepine], the IC50 [1] was 6700 ± 500 nM, the IC50 [2] was 60 ± 10 nM and the IC50 [3] was 180 ± 10 nM. The IC50 [4] was 310 ± 190 nM.
